Patent publication US12054498B2, “Heteroaromatic macrocyclic ether chemotherapeutic agents” (Nuvalent, Inc., priority 2020, dated 2024)

Columns and labels:
TRKA-wt = molecular target: T1, TRKA-wt (Homo sapiens, UniProt P04629); assay: Biochemical kinase assay, TRKA-wt kinase domain; conditions: apparent inhibitory constant, Morrison equation; ATP 2 mM in substrate solution; read-out: TRKA-wt Ki^app
T1 construct: or TRKA-wt (1 nM, BPS Bio, 40280) kinase domains in buffer; purchased BPS Bio 40280
T1 sequence (P04629 510-781 limits assumed): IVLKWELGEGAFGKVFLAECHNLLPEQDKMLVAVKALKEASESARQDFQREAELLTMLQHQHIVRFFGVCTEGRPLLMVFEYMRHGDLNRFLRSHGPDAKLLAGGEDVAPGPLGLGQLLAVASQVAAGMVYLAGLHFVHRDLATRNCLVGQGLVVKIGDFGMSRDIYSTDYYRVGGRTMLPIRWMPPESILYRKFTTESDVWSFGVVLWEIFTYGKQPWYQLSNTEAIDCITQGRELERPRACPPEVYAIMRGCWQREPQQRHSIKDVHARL
Method: (§1) First, 250 nL of compound dissolved in DMSO (100-fold of the desired concentration) was dispensed into a 384-well plate. A 12.5 μL substrate solution containing ATP (2 mM) and fluorogenic phosphorylation substrate AQT0101 (26 μM for ALK and ROS1, AssayQuant) or AQT0104 (26 μM for TRKA, AssayQuant) in buffer (50 mM HEPES pH 7.5, 0.01% Brij-35, 0.5 mM EGTA, 10 mM MgCl2) was added and mixed thoroughly. Then, a 12.5 μL kinase solution containing ALK-wt (1.5 nM, Carna, 08-518), ALK ALK L1196M/G1202R (3 nM, SignalChem, A19-12NG), ROS1-wt (0.6 nM, Carna, 08-163), ROS1-G2032R (0.5 nM, SignalChem, R14-12BG), or TRKA-wt (1 nM, BPS Bio, 40280) kinase domains in buffer (50 nM HEPES pH 7.5, 0.01% Brij-35, 2% glycerol, 0.4 mg/mL BSA, 0.5 mM EGTA, and 10 mM MgCl2) was added and mixed thoroughly. The plate was sealed and read by SpectraMax Paradigm at λ=485 nm every 2 minutes for 120 minutes at 30° C. Initial rates of reaction (v) were calculated from the change in fluorescence intensity over time during the initial, linear portion of the reaction. Finally, apparent inhibitory constants (Ki^app) were determined from regression of v and I (inhibitor concentration) to Morrison Equation (E=enzyme concentration): […]

ALK L1196M/G1202R = molecular target: T2, ALK L1196M/G1202R (Homo sapiens, UniProt Q9UM73, G1202R/L1196M); assay: Biochemical kinase assay, ALK L1196M/G1202R kinase domain; conditions: apparent inhibitory constant, Morrison equation; ATP 2 mM in substrate solution; read-out: ALK-L1196M-G1202R Ki^app
T2 construct: purchased SignalChem A19-12NG
T2 sequence (Q9UM73 1116-1392 L1196M/G1202R limits assumed): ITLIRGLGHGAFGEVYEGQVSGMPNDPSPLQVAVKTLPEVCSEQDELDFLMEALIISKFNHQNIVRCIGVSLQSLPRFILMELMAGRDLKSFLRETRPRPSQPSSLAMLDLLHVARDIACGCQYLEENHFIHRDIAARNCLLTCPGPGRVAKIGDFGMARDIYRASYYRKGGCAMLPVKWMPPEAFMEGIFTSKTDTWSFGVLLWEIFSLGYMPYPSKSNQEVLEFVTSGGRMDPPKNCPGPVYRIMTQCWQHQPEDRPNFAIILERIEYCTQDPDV
Method: as §1

Ba/F3 cells TPM3-TRKA = molecular target: T3, Ba/F3 cells TPM3-TRKA (Homo sapiens, UniProt P04629); assay: Ba/F3 cell proliferation assay, TPM3-TRKA; type: cell-based; conditions: 72 hours, CellTiter-Glo, read-out: TPM3-NTRK1-wt IC50
T3 construct: host or cells: Ba/F3 (RIKEN), retroviral pMSCV-puro; the other entry of the earlier key: TPM3 (P06753, Tropomyosin alpha-3 chain)
T3 sequence (P04629 510-796 limits assumed): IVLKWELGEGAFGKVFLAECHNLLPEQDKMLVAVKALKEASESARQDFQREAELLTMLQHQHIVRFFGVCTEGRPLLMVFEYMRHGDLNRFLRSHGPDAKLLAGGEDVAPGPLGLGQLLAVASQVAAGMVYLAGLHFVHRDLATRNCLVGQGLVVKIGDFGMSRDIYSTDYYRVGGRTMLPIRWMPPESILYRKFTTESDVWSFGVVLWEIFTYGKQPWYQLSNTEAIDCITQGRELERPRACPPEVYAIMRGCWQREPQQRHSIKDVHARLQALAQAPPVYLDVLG
Source text: (§2) Genes encoding CD74-ROS1 wild-type (wt), CD74-ROS1 G2032R, CD74-ROS1 S1986F, CD74-ROS1 L2026M, CD74-ROS1 D2033N, EML4-ALK wt (variant 1), EML4-ALK G1202R (variant 1), EML4-ALK L1196M/G1202R (variant 1), EML4-ALK G1202R/G1269A (variant 1), EML4-ALK G1202R/L1198F (variant 1), and TPM3-TRKA were synthesized at GeneRay, cloned into the retroviral construct pMSCV-puro (Biovector), and packaged into retroviral particles. The virus was used to infect Ba/F3 cells (RIKEN) at multiplicity of infection=1 for 1 day. Infected cells were rescued in media (RPMI-1640 with 10% fetal bovine serum and 1% streptomycin and penicillin) supplemented with mouse IL-3 (10 ng/mL) for 2 days, and stable cell lines were selected by IL-3 withdrawal and puromycin (0.8 μg/mL) for 7 days. Monoclones were selected by single-cell dilution in IL-3-free medium containing puromycin (0.8 μg/mL). Transformation of desired genes was confirmed by Sanger sequencing and western blot using the following antibodies: ROS1 (CST #3287), ALK (CST #3633), and pan-TRK (Abcam #76291).
(§3) Cell Proliferation Assay Stable cells were plated at 1,000 cells/well (40 μL) in a 384-well plate for 1 day.
(§4) Test compounds (40 nL) were then added in a 3-fold dilution series using the TECAN EVO200 liquid handler and incubated for 72 hours. Plates were equilibrated at room temperature for 15 minutes followed by addition of 40 μL CellTiter-Glo reagent (Promega).
(§5) Luminescence was measured on a plate reader. Half-maximal inhibitory concentration (IC50) was calculated from percent inhibition and inhibitor concentration using four-parameter logistic regression. […] (nd=not determined).

ROS1-wt = molecular target: T4, ROS1-wt (Homo sapiens, UniProt P08922); assay: Biochemical kinase assay, ROS1-wt kinase domain; conditions: apparent inhibitory constant, Morrison equation; ATP 2 mM in substrate solution; read-out: ROS1-wt Ki^app
T4 construct: purchased Carna 08-163
T4 sequence (P08922 1945-2222 limits assumed): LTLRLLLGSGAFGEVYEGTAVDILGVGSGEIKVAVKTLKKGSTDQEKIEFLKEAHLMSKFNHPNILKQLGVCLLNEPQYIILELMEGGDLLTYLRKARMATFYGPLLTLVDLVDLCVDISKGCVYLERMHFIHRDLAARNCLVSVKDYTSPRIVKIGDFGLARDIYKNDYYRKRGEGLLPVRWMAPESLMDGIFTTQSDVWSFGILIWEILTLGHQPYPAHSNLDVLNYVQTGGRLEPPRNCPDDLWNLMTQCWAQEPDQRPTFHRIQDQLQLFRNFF
Method: as §1, with “Then, a 12.5 μL kinase solution containing ALK-wt (1.5 nM, Carna, 08-518), ALK ALK L1196M/G1202R (3 nM, SignalChem, A19-12NG), ROS1-wt (0.6 nM, Carna, 08-163), ROS1-G2032R (0.5 nM, SignalChem, R14-12BG), or TRKA-wt (1 nM, BPS Bio, 40280) kinase domains in buffer (50 nM HEPES pH 7.5, 0.01% Brij-35, 2% glycerol, 0.4 mg/mL BSA, 0.5 mM EGTA, and 10 mM MgCl2) was added and mixed thoroughly.” left out

ALK-wt = molecular target: T5, ALK-wt (Homo sapiens, UniProt Q9UM73); assay: Biochemical kinase assay, ALK-wt kinase domain; conditions: apparent inhibitory constant, Morrison equation; ATP 2 mM in substrate solution; read-out: ALK-wt Ki^app
T5 construct: purchased Carna 08-518
T5 sequence (Q9UM73 1116-1392 limits assumed): as the sequence (Q9UM73 1116-1392 L1196M/G1202R limits assumed) above, with M81L, R87G counted along it
Method: as §1

[1] = molecular target: T6, Ba/F3 cells CD74-ROS1 G2032R (Homo sapiens, UniProt P08922, G2032R); assay: Ba/F3 cell proliferation assay, CD74-ROS1 G2032R; type: cell-based; conditions: 72 hours, CellTiter-Glo
T6 construct: fusion of the C-terminus of ROS1 with the N-terminus of various partner proteins; host or cells: Ba/F3 (RIKEN), retroviral pMSCV-puro; the other entry of the earlier key: CD74 (P04233, HLA class II histocompatibility antigen gamma chain)
T6 sequence (P08922 1883-2347 G2032R limits assumed): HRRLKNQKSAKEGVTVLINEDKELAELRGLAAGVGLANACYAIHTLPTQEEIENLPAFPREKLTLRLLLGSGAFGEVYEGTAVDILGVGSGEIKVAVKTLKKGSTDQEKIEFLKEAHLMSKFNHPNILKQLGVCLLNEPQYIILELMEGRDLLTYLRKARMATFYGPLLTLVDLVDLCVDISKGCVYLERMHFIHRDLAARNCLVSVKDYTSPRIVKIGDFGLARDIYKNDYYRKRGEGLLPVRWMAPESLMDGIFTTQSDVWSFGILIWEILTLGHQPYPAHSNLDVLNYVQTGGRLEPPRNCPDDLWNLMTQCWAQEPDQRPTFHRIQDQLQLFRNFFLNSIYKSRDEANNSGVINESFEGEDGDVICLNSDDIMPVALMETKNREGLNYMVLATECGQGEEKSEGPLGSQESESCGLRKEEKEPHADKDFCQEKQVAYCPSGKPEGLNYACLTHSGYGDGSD
Method: The virus was used to infect Ba/F3 cells (RIKEN) at multiplicity of infection=1 for 1 day. Infected cells were rescued in media (RPMI-1640 with 10% fetal bovine serum and 1% streptomycin and penicillin) supplemented with mouse IL-3 (10 ng/mL) for 2 days, and stable cell lines were selected by IL-3 withdrawal and puromycin (0.8 μg/mL) for 7 days. Monoclones were selected by single-cell dilution in IL-3-free medium containing puromycin (0.8 μg/mL).
as §3, §4, §5

[2] = molecular target: T7, Ba/F3 cells EML4-ALK L1196M/G1202R (variant 1) (Homo sapiens, UniProt Q9UM73, G1202R/L1196M); assay: Ba/F3 cell proliferation assay, EML4-ALK L1196M/G1202R (variant 1); type: cell-based; conditions: 72 hours, CellTiter-Glo
T7 construct: echinoderm microtubule-associated protein-like 4 (EML4) gene and the ALK tyrosine kinase domain; host or cells: Ba/F3 (RIKEN), retroviral pMSCV-puro; the other entry of the earlier key: EML4 (Q9HC35, Echinoderm microtubule-associated protein-like 4)
T7 sequence (Q9UM73 with tags, fused parts or gaps L1196M/G1202R): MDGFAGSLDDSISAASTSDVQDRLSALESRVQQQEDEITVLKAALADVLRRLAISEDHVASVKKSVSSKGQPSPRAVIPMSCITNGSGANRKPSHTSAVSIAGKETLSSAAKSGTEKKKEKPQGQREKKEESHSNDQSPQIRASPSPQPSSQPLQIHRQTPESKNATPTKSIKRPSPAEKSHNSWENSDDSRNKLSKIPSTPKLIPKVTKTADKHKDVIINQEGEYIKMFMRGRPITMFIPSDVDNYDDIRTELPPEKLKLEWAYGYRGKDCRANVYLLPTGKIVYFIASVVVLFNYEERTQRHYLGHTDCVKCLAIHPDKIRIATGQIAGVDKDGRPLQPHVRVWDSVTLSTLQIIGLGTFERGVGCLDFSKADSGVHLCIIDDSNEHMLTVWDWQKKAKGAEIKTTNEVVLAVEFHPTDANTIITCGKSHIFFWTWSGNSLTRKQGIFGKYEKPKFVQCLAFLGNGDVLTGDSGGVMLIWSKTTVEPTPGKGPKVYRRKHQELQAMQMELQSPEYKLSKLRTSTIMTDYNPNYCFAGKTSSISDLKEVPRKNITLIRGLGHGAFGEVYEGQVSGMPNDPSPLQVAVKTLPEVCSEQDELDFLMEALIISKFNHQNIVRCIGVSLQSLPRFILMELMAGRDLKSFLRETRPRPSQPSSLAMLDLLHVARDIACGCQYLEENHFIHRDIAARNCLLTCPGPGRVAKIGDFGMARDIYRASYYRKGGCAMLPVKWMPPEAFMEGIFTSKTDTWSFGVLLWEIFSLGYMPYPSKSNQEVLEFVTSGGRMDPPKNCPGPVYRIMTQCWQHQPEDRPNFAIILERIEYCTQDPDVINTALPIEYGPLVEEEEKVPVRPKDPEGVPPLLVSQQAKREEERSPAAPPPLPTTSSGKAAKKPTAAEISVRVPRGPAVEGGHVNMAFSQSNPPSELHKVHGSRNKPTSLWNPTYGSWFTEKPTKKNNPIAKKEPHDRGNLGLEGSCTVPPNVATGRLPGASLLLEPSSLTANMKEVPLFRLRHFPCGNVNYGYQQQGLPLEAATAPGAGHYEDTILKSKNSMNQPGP
Source text: as §2, §3, §4, §5

ROS1-G2032R = molecular target: T8, ROS1-G2032R (Homo sapiens, UniProt P08922, G2032R); assay: Biochemical kinase assay, ROS1-G2032R kinase domain; conditions: apparent inhibitory constant, Morrison equation; ATP 2 mM in substrate solution; read-out: ROS1-G2032R Ki^app
T8 construct: purchased SignalChem R14-12BG
T8 sequence (P08922 1945-2222 G2032R limits assumed): as the sequence (P08922 1945-2222 limits assumed) above, with G88R counted along it
Method: as §1, with “Then, a 12.5 μL kinase solution containing ALK-wt (1.5 nM, Carna, 08-518), ALK ALK L1196M/G1202R (3 nM, SignalChem, A19-12NG), ROS1-wt (0.6 nM, Carna, 08-163), ROS1-G2032R (0.5 nM, SignalChem, R14-12BG), or TRKA-wt (1 nM, BPS Bio, 40280) kinase domains in buffer (50 nM HEPES pH 7.5, 0.01% Brij-35, 2% glycerol, 0.4 mg/mL BSA, 0.5 mM EGTA, and 10 mM MgCl2) was added and mixed thoroughly.” left out

[3] = tested on: TPM3-NTRK1-wt IC50 / primary target IC50 (e.g. CD74-ROS1-wt); assay: TRKA selectivity in Ba/F3 cells (TRKA potency divided by primary target potency); type: cell-based; conditions: for TPM3-NTRK1-wt/CD74-ROS1-G2032R selectivity ratio: TRKA potency / CD74-ROS1-G2032R potency; for TPM3-NTRK1-wt/EML4-ALK-L1196M-G1202R selectivity ratio: TRKA potency / EML4-ALK-L1196M-G1202R potency
Method: TRKA selectivity was calculated by dividing a compound's TRKA potency by its primary target potency (e.g. TPM3-NTRK1-wt IC50/CD74-ROS1-wt IC50). Compound selectivity can be interpreted by binning ratio values: bin A for very high selectivity, ratio >30-fold; bin B for high selectivity, ratio >10-fold; bin C for moderate selectivity, ratio ≥1; and bin D for low selectivity, ratio <1. […] (nd=not determined).

[4] = molecular target: T9, Ba/F3 cells EML4-ALK wt (variant 1) (Homo sapiens, UniProt Q9UM73); assay: Ba/F3 cell proliferation assay, EML4-ALK wt (variant 1); type: cell-based; conditions: 72 hours, CellTiter-Glo
T9 construct: echinoderm microtubule-associated protein-like 4 (EML4) gene and the ALK tyrosine kinase domain; host or cells: Ba/F3 (RIKEN), retroviral pMSCV-puro; the other entry of the earlier key: EML4 (Q9HC35, Echinoderm microtubule-associated protein-like 4)
T9 sequence (Q9UM73 with tags, fused parts or gaps): as the sequence (Q9UM73 with tags, fused parts or gaps L1196M/G1202R) above, with M635L, R641G counted along it
Source text: as §2, §3, §4, §5

SMILES | Ki (TRKA-wt) | Ki (ALK L1196M/G1202R) | IC50 (Ba/F3 cells TPM3-TRKA) | Ki (ROS1-wt) | Ki (ALK-wt) | IC50 [1] | IC50 [2] | Ki (ROS1-G2032R) | TPM3-NTRK1-wt/CD74-ROS1-G2032R selectivity ratio [3] | TPM3-NTRK1-wt/EML4-ALK-L1196M-G1202R selectivity ratio [3] | IC50 [4]
CCn1ncc2c1-c1cnc(N)c(c1)O[C@H](C)c1cc(F)ccc1-c1cnnn1C2 [Example 2, (19R)-3-ethyl-16-fluoro-19-methyl-20-oxa-3,4,8,9,10,23-hexaazapentacyclo[19.3.1.0^2,^6.0^8,^12.0^13,^18]pentacosa-1(24),2(6),4,9,11,13,15,17,21 (25),22-decaen-22-amine] | > 500 nM | 50 to 500 nM | > 500 nM | < 50 nM | < 50 nM | 0.1 to 50 nM | > 500 nM | 50 to 500 nM | A (bin A for very high selectivity, ratio >30-fold) | C (bin C for moderate selectivity, ratio ≥1) | –
CCn1ncc2c1-c1cnc(N)c(c1)O[C@H](C)c1cc(F)ccc1-c1nn(C)nc1C2 [Example 5, (19R)-3-ethyl-16-fluoro-10,19-dimethyl-20-oxa-3,4,9,10,11,23-hexaazapentacyclo[19.3.1.0^2,^6.0^8,^12.0^13,^18]pentacosa-1(24),2(6),4.8,11,13,15,17,21(25),22-decaen-22-amine] | 50 to 500 nM | < 50 nM | 50 to 500 nM | – | < 50 nM | – | 0.1 to 50 nM | – | – | – | 0.1 to 50 nM
CCn1ncc2c1-c1cnc(N)c(c1)O[C@H](C)c1cc(F)ccc1-c1c(F)cnn1C2 [Example 8, (19R)-3-ethyl-11,16-difluoro-19-methyl-20-oxa-3,4,8,9,23-pentaazapentacyclo[19.3.1.0^2,^6.0^8,^12.0^13,^18]pentacosa-1(24),2(6),4,9,11,13,15,17,21(25),22-decaen-22-amine] | > 500 nM | < 50 nM | > 500 nM | < 50 nM | < 50 nM | 0.1 to 50 nM | 50 to 500 nM | < 50 nM | A (bin A for very high selectivity, ratio >30-fold) | C (bin C for moderate selectivity, ratio ≥1) | –
